Data on one molecule can be found in patent US6066635A, “Avrainvillamide, a cytotoxic marine natural product, and derivatives thereof” (University of California, San Diego, priority 1999, dated 2000).

Each structure is given as a SMILES string. Values after ≈ are worked out from the molar mass of the structure shown.

What all share (format): cell-based
The subject of one data set is human colon HCT116 cells. Description: HCT-116 cytotoxicity assay. To be noted: human colon HCT-116 cells; concentration required to inhibit cell proliferation by 50% vs untreated cells. The source says:
(§1) Thus, the invention provides a method of treating a cancer patient by administering to the patient a compound of the invention in an amount sufficient to reduce or inhibit proliferation of cancer cells in the patient.

The subject of a further data set is melanoma MALME-3M cells. Description: in vitro cytotoxicity at the National Cancer Institute (NCI 60 cell panel), melanoma. To be noted: Homo sapiens, inhibition of cell proliferation by 50%.
Source text: as §1

For data set [1], the system named is breast cancer cells βT-549. Description: in vitro cytotoxicity at the National Cancer Institute (NCI 60 cell panel), breast cancer βT-549. Particulars: inhibition of cell proliferation by 50%.
Source text: as §1

Data set [2] relates to breast cancer cells T-47D. Description: in vitro cytotoxicity at the National Cancer Institute (NCI 60 cell panel), breast cancer T-47D. Particulars: Homo sapiens, T47D; breast cancer T-47D (printed T-470); inhibition of cell proliferation by 50%.
Source text: as §1

The subject of data set [3] is tumor cell lines in the NCI 60 cell panel. The data set can be described thus: cytotoxic effect in the NCI 60 cell panel.
Source text: as §1

Regarding `CC1(C)C=Cc2c(ccc3c2[N+]([O-])=C2C3=CC34NC(=O)C5(CCCN5C3=O)CC4C2(C)C)O1` (stereo not drawn) [Avrainvillamide], the half-maximal inhibitory concentration (IC50) (commonly the concentration that gives 50% inhibition) came to 2 µg/mL (≈ 4.49 µM) with human colon HCT116 cells, 53 nM with melanoma MALME-3M cells, 34 nM in data set [1] and 72 nM in data set [2]. The “selective in vitro cytotoxicity towards melanoma and breast cancers” value in data set [3] (MALME-3M, βT-549 and T-470) was “significant selective in vitro cytotoxicity”. Further, the “cytotoxic effect against a variety of tumor cell lines” value in data set [3] (NCI 60 cell panel) was “dose dependent cytotoxic effect”.
